Measurements: ChEMBL document CHEMBL3046304, “Discovery of a series of novel compounds with moderate anti-avian H5N1 influenza virus activity in chick embryo” (Med Chem Res, 2013)

Experiments:
Influenza A virus [1] = experiment: Ratio of compound MED to oseltamivir MED for influenza A virus (A/duck/China/QJ/01(H5N1)) infected in chick embryo measured after 5 days by hemagglutination assay; type: functional
Influenza A virus [2] = type: functional
Neuraminidase [3] = molecular target: T1, Neuraminidase (Influenza A virus, UniProt B4URF0); set-up: species or system (A/duck/China/QJ/01(H5N1))
Influenza A virus [4] = experiment: Ratio of compound MED to oseltamivir carboxylate MED for influenza A virus (A/duck/China/QJ/01(H5N1)) infected in chick embryo measured after 5 days by hemagglutination assay; type: functional
Neuraminidase [5] = molecular target: T1, Neuraminidase; set-up: species or system (A/chicken/Shandong/LY/2008(H9N2))
[6] = Inhibition of neuraminidase

T1 sequence (B4URF0 whole entry): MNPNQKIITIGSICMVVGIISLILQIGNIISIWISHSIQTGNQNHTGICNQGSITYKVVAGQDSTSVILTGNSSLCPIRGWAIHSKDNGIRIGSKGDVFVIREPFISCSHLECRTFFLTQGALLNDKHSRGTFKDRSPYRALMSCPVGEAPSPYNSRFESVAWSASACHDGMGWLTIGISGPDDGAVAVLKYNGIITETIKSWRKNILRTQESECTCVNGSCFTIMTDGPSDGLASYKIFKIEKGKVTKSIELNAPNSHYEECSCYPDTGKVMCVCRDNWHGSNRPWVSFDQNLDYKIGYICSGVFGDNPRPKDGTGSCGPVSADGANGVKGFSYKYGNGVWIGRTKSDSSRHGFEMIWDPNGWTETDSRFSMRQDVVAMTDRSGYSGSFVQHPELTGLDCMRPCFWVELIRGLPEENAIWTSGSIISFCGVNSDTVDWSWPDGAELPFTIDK

Compound | Ratio (Influenza A virus [1]) | MED (Influenza A virus [2]) [µM] | IC50 (Neuraminidase [3]) [µM] | Ratio (Influenza A virus [4]) | IC50 (Neuraminidase [5]) [µM] | IC50 [6] [µM]
CC[C@H](C)[C@H](N)C(=O)Nc1cc(NC(=O)/C=C/c2ccco2)ccc1O.Cl | 4 | 2.5 | 103 | 4 | 119 | –
NC(Cn1ccc(=O)c(O)c1)C(=O)N[C@@H](Cc1ccc(O)cc1)C(=O)O (stereo partly specified) | – | – | – | – | – | 2.8
NC(Cn1ccc(=O)c(O)c1)C(=O)N[C@@H](Cc1ccccc1)C(=O)O (stereo partly specified) | – | – | – | – | – | 1.8
Cl.N=C(NCCC[C@H](N)C(=O)Nc1cc(NC(=O)/C=C/c2ccco2)ccc1O)N[N+](=O)[O-] | 4 | 5 | 192 | 4 | 193 | –
Cl.NCCCC(=O)Nc1cc(NC(=O)/C=C/c2ccco2)ccc1O | 4 | 5 | 132 | 4 | 167 | –
Cl.NCCCC[C@H](N)C(=O)Nc1cc(NC(=O)/C=C/c2ccco2)ccc1O | 4 | 5 | 225 | 4 | 215 | –
Cl.N[C@@H](Cc1c[nH]c2ccccc12)C(=O)Nc1cc(NC(=O)/C=C/c2ccco2)ccc1O | 4 | 2.5 | 189 | 4 | 194 | –
Cl.N[C@@H](Cc1ccccc1)C(=O)Nc1cc(NC(=O)/C=C/c2ccco2)ccc1O | 4 | 5 | 130 | 4 | 143 | –
CC(C)[C@H](N)C(=O)Nc1cc(NC(=O)/C=C/c2ccco2)ccc1O.Cl | 4 | 2.5 | 175 | 4 | 165 | –
CSCC[C@H](N)C(=O)Nc1cc(NC(=O)/C=C/c2ccco2)ccc1O.Cl | 4 | 5 | 121 | 4 | 144 | –
Cl.N[C@@H](CO)C(=O)Nc1cc(NC(=O)/C=C/c2ccco2)ccc1O | 4 | 5 | 143 | 4 | 158 | –
C[C@H](N)C(=O)Nc1cc(NC(=O)/C=C/c2ccco2)ccc1O.Cl | 4 | 5 | 110 | 4 | 91.7 | –
Cl.NCC(=O)Nc1cc(NC(=O)/C=C/c2ccco2)ccc1O | 4 | 5 | 139 | 4 | 175 | –
C[C@@H](O)[C@H](N)C(=O)Nc1cc(NC(=O)/C=C/c2ccco2)ccc1O.Cl | 4 | 5 | 187 | 4 | 200 | –
CC(C)C[C@H](N)C(=O)Nc1cc(NC(=O)/C=C/c2ccco2)ccc1O.Cl | 4 | 5 | 148 | 4 | 179 | –
Cl.NCCC(=O)Nc1cc(NC(=O)/C=C/c2ccco2)ccc1O | 4 | 5 | 108 | 4 | 118 | –
Cl.O=C(/C=C/c1ccco1)Nc1ccc(O)c(NC(=O)[C@@H]2C[C@@H](O)CN2)c1 | 4 | 5 | 109 | 4 | 111 | –
Cl.O=C(/C=C/c1ccco1)Nc1ccc(O)c(NC(=O)[C@@H]2CCCN2)c1 | 4 | 5 | 57.8 | 4 | 85.3 | –
C[C@H](N)C(=O)Nc1cc(NC(=O)/C=C/c2ccc(O)c(O)c2)ccc1O.Cl | 4 | 5 | 113 | 4 | 105 | –
CC[C@H](C)[C@H](N)C(=O)Nc1cc(NC(=O)/C=C/c2ccc(O)c(O)c2)ccc1O.Cl | 4 | 2.5 | 0.012 | 4 | 0.0017 | –
CC(C)[C@H](N)C(=O)Nc1cc(NC(=O)/C=C/c2ccc(O)c(O)c2)ccc1O.Cl | 4 | 2.5 | 114 | 4 | 138 | –
CC(C)C[C@H](N)C(=O)Nc1cc(NC(=O)/C=C/c2ccc(O)c(O)c2)ccc1O.Cl | 4 | 2.5 | 135 | 4 | 154 | –
O=c1cc(-c2ccc(O)cc2)oc2cc(O)cc(O)c12 [APIGENIN] | 4 | – | – | 4 | – | –
CCC(CC)O[C@@H]1C=C(C(=O)O)C[C@H](N)[C@H]1NC(C)=O.Cl [OSELTAMIVIR CARBOXYLATE HYDROCHLORIDE] | – | 0.625 | – | – | – | –
CCOC(=O)C1=C[C@@H](OC(CC)CC)[C@H](NC(C)=O)[C@@H](N)C1.O=P(O)(O)O [OSELTAMIVIR PHOSPHATE] | – | 0.625 | – | – | – | –
